This passage reports TGI results from PubChem BioAssay (NCI).

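In this assay, cells in 96-well plates receive the compound at five concentrations for 48 hours. Endpoints are linearly interpolated between the surrounding concentrations. TGI denotes the concentration required for complete inhibition of growth.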 A value given as a limit tells only on which side of the number the result lay.

Some test systems named below: HCC-2998 colon; IGROV1 ovarian; U251 CNS; SW-620 colon; RPMI-8226 leukemia; HT29 colon; SK-MEL-28 melanoma; UACC-257 melanoma; T-47D breast; CAKI-1 renal; OVCAR-4 ovarian; HL-60(TB) leukemia; MDA-MB-231 breast; SR leukemia; CCRF-CEM leukemia; LOX IMVI melanoma; A498 renal; BT-549 breast.
Common to all, as to assay: NCI-60 cell line screen, 48 h

Turning to `Nc1ncnc2c1nnn2C1C=CC(COS(N)(=O)=O)C1` (stereo not given), the TGI is 76.2 µM with HCC-2998 colon; above 100 µM in the assay on IGROV1 ovarian; 57.7 µM with U251 CNS; above 100 µM in the assay with SW-620 colon; 50.7 µM in the assay with RPMI-8226 leukemia; 98.5 µM in the assay on HT29 colon. Moreover, the TGI is 26.2 µM with SK-MEL-28 melanoma; 62.6 µM in the assay on UACC-257 melanoma; 97.7 µM in the assay with T-47D breast; 12.2 µM in the assay with CAKI-1 renal; 62.3 µM in the assay on OVCAR-4 ovarian; 17.1 µM with HL-60(TB) leukemia. Further, the TGI in the assay on MDA-MB-231 breast was above 100 µM; in the assay on SR leukemia, above 100 µM; in the assay on CCRF-CEM leukemia, above 100 µM; in the assay with LOX IMVI melanoma, 17.8 µM.

For the compound `O=S(=O)(c1ccccc1)n1c2ccc(Br)cc2c2nc3ccccc3nc21`, the TGI with HCC-2998 colon, with IGROV1 ovarian, in the assay on A498 renal, with U251 CNS, in the assay with SW-620 colon and in the assay with RPMI-8226 leukemia was above 100 µM throughout. The TGI with HT29 colon, in the assay on SK-MEL-28 melanoma, with UACC-257 melanoma, in the assay with T-47D breast, with CAKI-1 renal and in the assay with OVCAR-4 ovarian was above 100 µM throughout. In addition, the TGI in the assay with MDA-MB-231 breast, with SR leukemia, with CCRF-CEM leukemia and with LOX IMVI melanoma was above 100 µM in each case.

Consider `COC(=O)C1=C(C(=O)OC)C(C(=O)c2ccc(Br)cc2)N2N=C(c3ccc(Cl)cc3)C=CC12` (stereo not given), for which the TGI in the assay with HCC-2998 colon, in the assay with IGROV1 ovarian, in the assay on A498 renal, in the assay on U251 CNS, with SW-620 colon and in the assay with RPMI-8226 leukemia was above 100 µM in each case. For the same compound, the TGI with SK-MEL-28 melanoma, in the assay on UACC-257 melanoma, with CAKI-1 renal, in the assay with OVCAR-4 ovarian, in the assay with HL-60(TB) leukemia and in the assay on MDA-MB-231 breast was above 100 µM throughout. Also, the TGI in the assay on SR leukemia, in the assay with CCRF-CEM leukemia, with BT-549 breast and with LOX IMVI melanoma was above 100 µM in each case.

Regarding `C[n+]1c(-c2ccc(/C=N/NC(=N)N/N=C/c3ccc(-c4cn5cc(Cl)ccc5[n+]4C)cc3)cc2)cn2cc(Cl)ccc21`, the TGI in the assay with HCC-2998 colon, in the assay with IGROV1 ovarian, in the assay on U251 CNS, in the assay with SW-620 colon, with RPMI-8226 leukemia and in the assay with HT29 colon was above 100 µM in each case. For the same compound, the TGI in the assay on SK-MEL-28 melanoma, in the assay on UACC-257 melanoma, with T-47D breast, in the assay with OVCAR-4 ovarian, with HL-60(TB) leukemia and with MDA-MB-231 breast was above 100 µM in each case. In addition, the TGI in the assay with SR leukemia and with CCRF-CEM leukemia was above 100 µM throughout.

Consider `COc1ccc2nc3c([N+](=O)[O-])ccc4c3c(c2c1)NCCN4CCO`, for which the TGI was found to be 1.91 µM in the assay on HCC-2998 colon; 3.22 µM in the assay with IGROV1 ovarian; 2 µM in the assay with A498 renal; 1.85 µM in the assay on U251 CNS; 3.1 µM in the assay on SW-620 colon; 2.61 µM in the assay with RPMI-8226 leukemia. The TGI with HT29 colon was found to be 2.02 µM; in the assay on SK-MEL-28 melanoma, 2.03 µM; in the assay with UACC-257 melanoma, 1.5 µM; in the assay on T-47D breast, 3.68 µM; with CAKI-1 renal it was 3.06 µM; with OVCAR-4 ovarian it was 2.39 µM. In addition, the TGI worked out at 1.25 µM in the assay on HL-60(TB) leukemia; 2.05 µM in the assay on MDA-MB-231 breast; 0.455 µM with SR leukemia; 2 µM in the assay with CCRF-CEM leukemia; 0.792 µM with LOX IMVI melanoma.

As for `BrCCCCCOc1ccc(-c2c3ccccc3c(-c3ccc(OCCCCCBr)cc3)c3ccccc23)cc1`, the TGI in the assay with HCC-2998 colon, in the assay with IGROV1 ovarian, with U251 CNS, with SW-620 colon, with RPMI-8226 leukemia and in the assay with HT29 colon was above 100 µM in each case. In addition, the TGI in the assay on SK-MEL-28 melanoma, in the assay on UACC-257 melanoma, in the assay on T-47D breast, with CAKI-1 renal, in the assay with OVCAR-4 ovarian and in the assay on HL-60(TB) leukemia was above 100 µM each time. The TGI in the assay on MDA-MB-231 breast, in the assay on SR leukemia and in the assay with CCRF-CEM leukemia was above 100 µM in each case.

Consider `O=C(/C=C/c1ccc(O)cc1)c1ccc2c(c1)OCO2`, for which the TGI amounted to 40.5 µM with HCC-2998 colon; 28.9 µM in the assay on IGROV1 ovarian; 38.4 µM in the assay on A498 renal; 36.2 µM with U251 CNS; 42.9 µM in the assay on SW-620 colon; 33.7 µM in the assay on HT29 colon. The TGI with SK-MEL-28 melanoma was determined as 42.3 µM; in the assay on UACC-257 melanoma, 33.6 µM; in the assay with T-47D breast, 75.3 µM; in the assay with CAKI-1 renal it was 35.3 µM; with OVCAR-4 ovarian, 48 µM; in the assay on HL-60(TB) leukemia, 41.3 µM. Moreover, the TGI amounted to 37.4 µM in the assay with MDA-MB-231 breast, 33.6 µM in the assay with SR leukemia, 5.69 µM in the assay with CCRF-CEM leukemia and 47 µM in the assay on LOX IMVI melanoma.

`COC(=O)/C(=C\Nc1cccc(C)n1)S(=O)(=O)c1ccc(C)cc1`: the TGI in the assay on HCC-2998 colon, in the assay with IGROV1 ovarian, in the assay with U251 CNS, with SW-620 colon, in the assay with RPMI-8226 leukemia and with HT29 colon was above 100 µM each time. Moreover, the TGI with SK-MEL-28 melanoma was above 100 µM; in the assay on UACC-257 melanoma, above 100 µM; with T-47D breast, above 100 µM; with OVCAR-4 ovarian, above 100 µM; with HL-60(TB) leukemia, 53.3 µM; in the assay on MDA-MB-231 breast, above 100 µM. Also, the TGI in the assay with SR leukemia, in the assay with CCRF-CEM leukemia and in the assay with LOX IMVI melanoma was above 100 µM each time.
